Measured values as given in ChEMBL document CHEMBL4251595, “Green approach for the synthesis of thiophenyl pyrazoles and isoxazoles by adopting 1,3-dipolar cycloaddition methodology and their antimicrobial activity” (2018).
Values after ≈ are worked out from the molar mass of the structure shown.

What was measured:
Assay type in all cases: functional
Staphylococcus aureus [1] = experiment: Antimicrobial activity against Staphylococcus aureus assessed as zone of inhibition at 75 ug/well after 24 hrs by agar well diffusion method; settings: read-out: DIZ
Klebsiella pneumoniae [2] = experiment: Antimicrobial activity against Klebsiella pneumoniae assessed as zone of inhibition at 75 ug/well after 24 hrs by agar well diffusion method; settings: read-out: DIZ
Bacillus subtilis [3] = experiment: Bactericidal activity against Bacillus subtilis incubated for 24 hrs followed by replating on sterile nutrient broth and incubated for 24 hrs by broth dilution test
Penicillium chrysogenum [4] = experiment: Antifungal activity against Penicillium chrysogenum assessed as zone of inhibition at 100 ug/well after 48 hrs by agar well diffusion method; settings: read-out: DIZ
Bacillus subtilis [5] = experiment: Antimicrobial activity against Bacillus subtilis assessed as zone of inhibition at 50 ug/well after 24 hrs by agar well diffusion method; settings: read-out: DIZ
Aspergillus niger [6] = experiment: Antifungal activity against Aspergillus niger assessed as zone of inhibition at 50 ug/well after 48 hrs by agar well diffusion method; settings: read-out: DIZ
Pseudomonas aeruginosa [7] = experiment: Antimicrobial activity against Pseudomonas aeruginosa after 24 hrs by broth dilution test
Bacillus subtilis [8] = experiment: Antimicrobial activity against Bacillus subtilis assessed as zone of inhibition at 75 ug/well after 24 hrs by agar well diffusion method; settings: read-out: DIZ
Bacillus subtilis [9] = experiment: Antimicrobial activity against Bacillus subtilis after 24 hrs by broth dilution test
Klebsiella pneumoniae [10] = experiment: Antimicrobial activity against Klebsiella pneumoniae assessed as zone of inhibition at 100 ug/well after 24 hrs by agar well diffusion method; settings: read-out: DIZ
Aspergillus niger [11] = experiment: Antifungal activity against Aspergillus niger assessed as zone of inhibition at 75 ug/well after 48 hrs by agar well diffusion method; settings: read-out: DIZ
Penicillium chrysogenum [12] = experiment: Antifungal activity against Penicillium chrysogenum assessed as zone of inhibition at 75 ug/well after 48 hrs by agar well diffusion method; settings: read-out: DIZ
Pseudomonas aeruginosa [13] = experiment: Antimicrobial activity against Pseudomonas aeruginosa assessed as zone of inhibition at 75 ug/well after 24 hrs by agar well diffusion method; settings: read-out: DIZ
Klebsiella pneumoniae [14] = experiment: Bactericidal activity against Klebsiella pneumoniae incubated for 24 hrs followed by replating on sterile nutrient broth and incubated for 24 hrs by broth dilution test
Bacillus subtilis [15] = experiment: Antimicrobial activity against Bacillus subtilis assessed as zone of inhibition at 100 ug/well after 24 hrs by agar well diffusion method; settings: read-out: DIZ
Pseudomonas aeruginosa [16] = experiment: Antimicrobial activity against Pseudomonas aeruginosa assessed as zone of inhibition at 50 ug/well after 24 hrs by agar well diffusion method; settings: read-out: DIZ
Pseudomonas aeruginosa [17] = experiment: Bactericidal activity against Pseudomonas aeruginosa incubated for 24 hrs followed by replating on sterile nutrient broth and incubated for 24 hrs by broth dilution test
Staphylococcus aureus [18] = experiment: Antimicrobial activity against Staphylococcus aureus assessed as zone of inhibition at 100 ug/well after 24 hrs by agar well diffusion method; settings: read-out: DIZ
Klebsiella pneumoniae [19] = experiment: Antimicrobial activity against Klebsiella pneumoniae after 24 hrs by broth dilution test
Klebsiella pneumoniae [20] = experiment: Antimicrobial activity against Klebsiella pneumoniae assessed as zone of inhibition at 50 ug/well after 24 hrs by agar well diffusion method; settings: read-out: DIZ
Staphylococcus aureus [21] = experiment: Antimicrobial activity against Staphylococcus aureus after 24 hrs by broth dilution test
Pseudomonas aeruginosa [22] = experiment: Antimicrobial activity against Pseudomonas aeruginosa assessed as zone of inhibition at 100 ug/well after 24 hrs by agar well diffusion method; settings: read-out: DIZ
Aspergillus niger [23] = experiment: Fungicidal activity against Aspergillus niger incubated for 48 hrs followed by replating on PDA and incubated for 48 hrs by broth dilution test
Penicillium chrysogenum [24] = experiment: Antifungal activity against Penicillium chrysogenum after 48 hrs by broth dilution test
Aspergillus niger [25] = experiment: Antifungal activity against Aspergillus niger after 48 hrs by broth dilution test
Aspergillus niger [26] = experiment: Antifungal activity against Aspergillus niger assessed as zone of inhibition at 100 ug/well after 48 hrs by agar well diffusion method; settings: read-out: DIZ
Staphylococcus aureus [27] = experiment: Bactericidal activity against Staphylococcus aureus incubated for 24 hrs followed by replating on sterile nutrient broth and incubated for 24 hrs by broth dilution test
Penicillium chrysogenum [28] = experiment: Fungicidal activity against Penicillium chrysogenum incubated for 48 hrs followed by replating on PDA and incubated for 48 hrs by broth dilution test
Staphylococcus aureus [29] = experiment: Antimicrobial activity against Staphylococcus aureus assessed as zone of inhibition at 50 ug/well after 24 hrs by agar well diffusion method; settings: read-out: DIZ
Penicillium chrysogenum [30] = experiment: Antifungal activity against Penicillium chrysogenum assessed as zone of inhibition at 50 ug/well after 48 hrs by agar well diffusion method; settings: read-out: DIZ

| SMILES | zone of inhibition at 75 µg/disc (Staphylococcus aureus [1]) [mm] | zone of inhibition at 75 µg/disc (Klebsiella pneumoniae [2]) [mm] | MBC (Bacillus subtilis [3]) [µg/mL] | zone of inhibition at 100 µg/disc (Penicillium chrysogenum [4]) [mm] | zone of inhibition at 50 µg/disc (Bacillus subtilis [5]) [mm] | zone of inhibition at 50 µg/disc (Aspergillus niger [6]) [mm] | MIC (Pseudomonas aeruginosa [7]) [µg/mL] | zone of inhibition at 75 µg/disc (Bacillus subtilis [8]) [mm] | MIC (Bacillus subtilis [9]) [µg/mL] | zone of inhibition at 100 µg/disc (Klebsiella pneumoniae [10]) [mm] | zone of inhibition at 75 µg/disc (Aspergillus niger [11]) [mm] | zone of inhibition at 75 µg/disc (Penicillium chrysogenum [12]) [mm] | zone of inhibition at 75 µg/disc (Pseudomonas aeruginosa [13]) [mm] | MBC (Klebsiella pneumoniae [14]) [µg/mL] | zone of inhibition at 100 µg/disc (Bacillus subtilis [15]) [mm] | zone of inhibition at 50 µg/disc (Pseudomonas aeruginosa [16]) [mm] | MBC (Pseudomonas aeruginosa [17]) [µg/mL] | zone of inhibition at 100 µg/disc (Staphylococcus aureus [18]) [mm] | MIC (Klebsiella pneumoniae [19]) [µg/mL] | zone of inhibition at 50 µg/disc (Klebsiella pneumoniae [20]) [mm] | other results |
| --- | --- | --- | --- | --- | --- | --- | --- | --- | --- | --- | --- | --- | --- | --- | --- | --- | --- | --- | --- | --- | --- |
| O=C(NS(=O)(=O)c1c(-c2ccccc2)nn(-c2ccccc2)c1-c1ccc([N+](=O)[O-])cc1)c1ccc(Cl)s1 | 28 | 33 | 12.5 (≈ 22.1 µM) | 29 | 35 | 29 | 12.5 (≈ 22.1 µM) | 38 | 6.25 (≈ 11.1 µM) | 37 | 31 | 25 | 23 | 100 (≈ 177 µM) | 41 | 22 | 50 (≈ 88.5 µM) | 29 | 25 (≈ 44.2 µM) | 30 | MIC (Staphylococcus aureus [21]): 50 µg/mL (≈ 88.5 µM); zone of inhibition at 100 µg/disc (Pseudomonas aeruginosa [22]): 26 mm; MFC (Aspergillus niger [23]): 50 µg/mL (≈ 88.5 µM); MIC (Penicillium chrysogenum [24]): 50 µg/mL (≈ 88.5 µM); MIC (Aspergillus niger [25]): 12.5 µg/mL (≈ 22.1 µM); zone of inhibition at 100 µg/disc (Aspergillus niger [26]): 34 mm; MBC (Staphylococcus aureus [27]): 200 µg/mL (≈ 354 µM); MFC (Penicillium chrysogenum [28]): 200 µg/mL (≈ 354 µM); zone of inhibition at 50 µg/disc (Staphylococcus aureus [29]): 24 mm; zone of inhibition at 50 µg/disc (Penicillium chrysogenum [30]): 24 mm |
| O=C(NS(=O)(=O)c1c(-c2ccccc2)noc1-c1ccc([N+](=O)[O-])cc1)c1cccs1 | 28 | 34 | 12.5 (≈ 27.4 µM) | 30 | 34 | 33 | 12.5 (≈ 27.4 µM) | 38 | 6.25 (≈ 13.7 µM) | 36 | 35 | 28 | 23 | 100 (≈ 220 µM) | 42 | 21 | 50 (≈ 110 µM) | 30 | 25 (≈ 54.9 µM) | 31 | MIC (Staphylococcus aureus [21]): 50 µg/mL (≈ 110 µM); zone of inhibition at 100 µg/disc (Pseudomonas aeruginosa [22]): 26 mm; MFC (Aspergillus niger [23]): 12.5 µg/mL (≈ 27.4 µM); MIC (Penicillium chrysogenum [24]): 50 µg/mL (≈ 110 µM); MIC (Aspergillus niger [25]): 6.25 µg/mL (≈ 13.7 µM); zone of inhibition at 100 µg/disc (Aspergillus niger [26]): 38 mm; MBC (Staphylococcus aureus [27]): 200 µg/mL (≈ 439 µM); MFC (Penicillium chrysogenum [28]): 200 µg/mL (≈ 439 µM); zone of inhibition at 50 µg/disc (Staphylococcus aureus [29]): 25 mm; zone of inhibition at 50 µg/disc (Penicillium chrysogenum [30]): 25 mm |
